# Data published in ChEMBL document CHEMBL2390919, “Investigation of the role of linker moieties in bifunctional tacrine hybrids” (Bioorg Med Chem, 2013).
# The source made the active and inactive calls. The rule behind the calls is not given here.
# What was measured:
# [1] = target: Acetylcholinesterase (Electrophorus electricus) (UniProt O42275); assay: Ratio of tacrine IC50 to compound IC50 for electric eel AChE in presence of horseradish peroxidase and H2O2 and DETAPAC
# [2] = target: Acetylcholinesterase (Electrophorus electricus) (UniProt O42275); assay: Ratio of tacrine IC50 to compound IC50 for electric eel AChE
# [3] = target: T1, Acetylcholinesterase (Electrophorus electricus, UniProt O42275)
# T1 sequence (O42275 whole entry): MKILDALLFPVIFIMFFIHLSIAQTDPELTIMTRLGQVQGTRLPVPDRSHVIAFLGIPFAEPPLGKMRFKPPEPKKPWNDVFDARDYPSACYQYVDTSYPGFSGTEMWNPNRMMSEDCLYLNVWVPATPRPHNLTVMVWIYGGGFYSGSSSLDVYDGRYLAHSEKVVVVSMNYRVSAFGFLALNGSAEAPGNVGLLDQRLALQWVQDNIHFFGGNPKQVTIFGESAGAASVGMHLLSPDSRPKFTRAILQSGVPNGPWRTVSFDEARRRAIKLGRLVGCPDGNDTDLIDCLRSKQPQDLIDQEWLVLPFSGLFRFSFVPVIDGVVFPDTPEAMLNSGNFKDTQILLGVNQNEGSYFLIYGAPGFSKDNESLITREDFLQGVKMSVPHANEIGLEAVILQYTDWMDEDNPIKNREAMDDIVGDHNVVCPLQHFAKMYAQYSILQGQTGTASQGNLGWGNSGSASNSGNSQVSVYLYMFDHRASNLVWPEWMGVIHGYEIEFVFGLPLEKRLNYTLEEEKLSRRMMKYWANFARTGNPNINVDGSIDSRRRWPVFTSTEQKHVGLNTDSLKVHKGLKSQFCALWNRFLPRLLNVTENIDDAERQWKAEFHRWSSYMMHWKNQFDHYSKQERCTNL
# Description: Inhibition of electric eel AChE preincubated for 30 mins prior to horseradish peroxidase, H2O2 and DETAPAC addition measured for 20 mins under ROS condition by Muraoka and Miura method
# [4] = target: T1, Acetylcholinesterase; remark: listed apart in the source
# Description: Inhibition of electric eel AChE using acetylthiocholine as substrate preincubated for 10 mins prior to substrate addition measured every 30 seconds for 30 mins by Ellman's method
# [5] = target: Acetylcholinesterase (Electrophorus electricus) (UniProt O42275); assay: Non competitive inhibition of electric eel AChE using acetylthiocholine as substrate by Lineweaver-Burk plot analysis
# Chain of Acetylcholinesterase (Electrophorus electricus) (O42275 24-633 limits assumed): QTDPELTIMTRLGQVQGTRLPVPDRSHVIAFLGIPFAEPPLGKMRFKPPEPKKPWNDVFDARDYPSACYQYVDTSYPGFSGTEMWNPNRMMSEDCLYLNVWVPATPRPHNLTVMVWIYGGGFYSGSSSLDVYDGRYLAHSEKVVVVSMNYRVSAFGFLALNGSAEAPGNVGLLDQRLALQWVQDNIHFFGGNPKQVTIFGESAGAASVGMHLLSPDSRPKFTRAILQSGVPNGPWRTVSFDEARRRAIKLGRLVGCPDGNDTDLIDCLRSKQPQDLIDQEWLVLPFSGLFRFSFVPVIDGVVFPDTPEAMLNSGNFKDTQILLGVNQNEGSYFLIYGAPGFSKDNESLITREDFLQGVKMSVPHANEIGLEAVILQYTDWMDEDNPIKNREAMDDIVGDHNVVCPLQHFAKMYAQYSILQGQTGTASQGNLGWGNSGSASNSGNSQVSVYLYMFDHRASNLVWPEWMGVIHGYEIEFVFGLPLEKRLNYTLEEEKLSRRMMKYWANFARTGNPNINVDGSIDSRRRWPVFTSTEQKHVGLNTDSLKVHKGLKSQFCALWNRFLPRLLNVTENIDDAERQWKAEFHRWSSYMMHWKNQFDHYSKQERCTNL
Compound,Ratio IC50 [1],Ratio IC50 [2],IC50 [3],IC50 [4],inhibition [5]
NCCCCCCCCCCNc1c2c(nc3cc(Cl)ccc13)CCCC2,30,50,2.18 nM,0.932 nM,–
Cc1cccc(Nc2ccccc2C(=O)NCCCC(=O)NCCCCNc2c3c(nc4cc(Cl)ccc24)CCCC3)c1C,–,–,12.4 nM,13.6 nM,–
Cc1cccc(Nc2ccccc2C(=O)NCCCCCCCNc2c3c(nc4cc(Cl)ccc24)CCCC3)c1C,–,–,29.8 nM,1380 nM,–
CCCCCCCCNc1c2c(nc3cc(Cl)ccc13)CCCC2,–,< 5,7.95 nM,19.6 nM,–
Cc1cccc(Nc2ccccc2C(=O)NCCCC(=O)NCCCCCCCNc2c3c(nc4cc(Cl)ccc24)CCCC3)c1C,–,–,6.55 nM,7.91 nM,–
NCCCCCCCCNc1c2c(nc3cc(Cl)ccc13)CCCC2,–,50,293 nM,1.14 nM,–
NCCCCCCCNc1c2c(nc3cc(Cl)ccc13)CCCC2,–,–,15.1 nM,5.37 nM,–
Cc1cccc(Nc2ccccc2C(=O)NCCCCCC(=O)NCCCCNc2c3c(nc4cc(Cl)ccc24)CCCC3)c1C,–,–,0.299 nM,37.4 nM,–
Cc1cccc(Nc2ccccc2C(=O)NCCCCCCCCCCNc2c3c(nc4cc(Cl)ccc24)CCCC3)c1C,–,–,1.85 nM,0.776 nM,–
Cc1cccc(Nc2ccccc2C(=O)NCCC(=O)NCCCCCCNc2c3c(nc4cc(Cl)ccc24)CCCC3)c1C,–,–,2.96 nM,1.14 nM,–
CCCCCCCCCNc1c2c(nc3cc(Cl)ccc13)CCCC2,–,20,16.9 nM,2.27 nM,–
NCCCCCNc1c2c(nc3cc(Cl)ccc13)CCCC2,–,–,938 nM,51 nM,–
Cc1cccc(Nc2ccccc2C(=O)NCCCCCC(=O)NCCCCCCCNc2c3c(nc4cc(Cl)ccc24)CCCC3)c1C,–,–,13.4 nM,11.1 nM,–
CCCCCCCNc1c2c(nc3cc(Cl)ccc13)CCCC2,–,3,2.03 nM,16 nM,Active
Cc1cccc(Nc2ccccc2C(=O)NCCC(=O)NCCCCCCCNc2c3c(nc4cc(Cl)ccc24)CCCC3)c1C,–,–,10 nM,6.67 nM,–
NCCCCCCNc1c2c(nc3cc(Cl)ccc13)CCCC2,–,–,7.85 nM,11.1 nM,Active

Compound,Ratio IC50 [1],Ratio IC50 [2],IC50 [3],IC50 [4],inhibition [5]
Cc1cccc(Nc2ccccc2C(=O)NCCCCCCCCCCCCNc2c3c(nc4cc(Cl)ccc24)CCCC3)c1C,–,–,16.2 nM,2360 nM,–
NCCCCNc1c2c(nc3cc(Cl)ccc13)CCCC2,–,–,65.8 nM,38 nM,–
Cc1cccc(Nc2ccccc2C(=O)NCCCC(=O)NCCCCCCNc2c3c(nc4cc(Cl)ccc24)CCCC3)c1C,–,–,15.6 nM,41.7 nM,–
Cc1cccc(Nc2ccccc2C(=O)NCCCCCCCCCNc2c3c(nc4cc(Cl)ccc24)CCCC3)c1C,–,–,6.72 nM,6.94 nM,–
Cc1cccc(Nc2ccccc2C(=O)NCCC(=O)NCCCCNc2c3c(nc4cc(Cl)ccc24)CCCC3)c1C,–,–,33 nM,2470 nM,–
Cc1cccc(Nc2ccccc2C(=O)NCCCCCCNc2c3c(nc4cc(Cl)ccc24)CCCC3)c1C,–,–,1.02 nM,7230 nM,–
Cc1cccc(Nc2ccccc2C(=O)NCCCCCC(=O)NCCCCCCNc2c3c(nc4cc(Cl)ccc24)CCCC3)c1C,–,–,7.39 nM,2.94 nM,–
Cc1cccc(Nc2ccccc2C(=O)NCCCCCCCCNc2c3c(nc4cc(Cl)ccc24)CCCC3)c1C,–,–,1.49 nM,0.495 nM,–
NCCCCCCCCCNc1c2c(nc3cc(Cl)ccc13)CCCC2,30,50,1.22 nM,0.604 nM,Active
OCCCCCNc1c2c(nc3cc(Cl)ccc13)CCCC2,–,–,1520 nM,72.5 nM,–
CCCCCNc1c2c(nc3cc(Cl)ccc13)CCCC2,–,< 5,43.2 nM,26.3 nM,–
NCCCCCCCCCCCCNc1c2c(nc3cc(Cl)ccc13)CCCC2,30,50,1.44 nM,0.648 nM,–
OCCCCCCNc1c2c(nc3cc(Cl)ccc13)CCCC2,–,–,2.47 nM,42.4 nM,Active
CCCCCCNc1c2c(nc3cc(Cl)ccc13)CCCC2,–,< 5,26.2 nM,65.3 nM,–
CCCCCCCCCCNc1c2c(nc3cc(Cl)ccc13)CCCC2,–,10,252 nM,5.17 nM,–
